We go through 60 compounds from patent publication US9779901B2, “High temperature material compositions for high temperature thermal cutoff devices” (Therm-O-Disc, Incorporated, priority 2008, dated 2017).

For series [1] the following is noted: estimated melting point temperature ranges of candidate organic compounds (Table 2); some compounds have several values, partly in parentheses, because analytic techniques differ; cited from earlier work.

Molecules are shown by their SMILES. Where two headings read alike, the source gives them in different places.

The compound `O=[N+]([O-])c1ccc(NN=Cc2ccccc2Cl)cc1` [Example 73] showed a Melting Point of 249 °C. In series [1], the “Melting Point” value was 249° ° C.

`O=C(C=Cc1ccccc1)NCCCCNC(=O)C=Cc1ccccc1` [Example 74] yielded a Melting Point of 249 to 253 °C. For the same compound, the “Melting Point” value in series [1] is listed as 249-253° ° C.

The compound `Nc1cccc2sc3ccccc3c(=O)c12` [Example 75] gave a Melting Point of 249 to 250 °C. The “Melting Point” value in series [1] is 249-250° ° C.

With `c1nc2nc3nc[nH]cc3n2n1` [Example 77], the Melting Point worked out at 250 °C. In series [1], the “Melting Point” value is 250° ° C.

`CN1Cc2cc(C3=NNC(=O)CC3)ccc2NC1=O` [Example 79] registered a Melting Point of 250 °C. Further, the “Melting Point” value in series [1] is 250° ° C.

For the compound `CN(C)c1ccc(C(C)(C)C)cc1` [Example 82], the Melting Point fell in the range of 250 to 253 °C. In addition, the “Melting Point” value in series [1] is 250-253° ° C.

In turn, `CC(=O)Nc1cc2ccccc2c2ccc3ccccc3c12` [Example 83] gave a Melting Point of 250 to 251 °C. The “Melting Point” value in series [1] is listed as 250-251° ° C.

In turn, `NC(=O)C1c2ccccc2-c2ccccc21` [Example 86] had a Melting Point of 251 °C. In addition, the “Melting Point” value in series [1] is given as 251° ° C.

In turn, `Cc1cc2[nH]c3ccccc3c2cc1C` [Example 87] displayed a Melting Point of 251 to 253 °C. Also, in series [1], the “Melting Point” value was 251-253° ° C.

Compound `C(#Cc1c2ccccc2c(C#Cc2ccccc2)c2ccccc12)c1ccccc1` [Example 88] yielded a Melting Point of 251 to 253 °C. For the same compound, the “Melting Point” value in series [1] was 251-253° ° C.

`O=c1ccc2ncc[nH]c-2c1` [Example 90] returned a Melting Point of 252 to 254 °C. For the same compound, the “Melting Point” value in series [1] is on record as 252-254° ° C.

Compound `O=C1CCc2c1[nH]c1ccccc21` [Example 95] registered a Melting Point of 252 to 252.5 °C. The “Melting Point” value in series [1] is reported as 252-252.5° ° C.

Take `O=c1[nH]c(=S)oc2ccccc12` [Example 98]: the Melting Point came to 253 °C. Besides, the “Melting Point” value in series [1] was 253° ° C.

The compound `c1ccc2c(c1)[nH]c1ccc3cnccc3c12` [Example 99] yielded a Melting Point of 254 to 255 °C. In addition, the “Melting Point” value in series [1] is recorded as 254-255° ° C.

The compound `Oc1c2ccc3ccccc3c2cc2ccc3ccccc3c12` [Example 101] registered a Melting Point of 254 to 256 °C. The “Melting Point” value in series [1] is reported as 254-256° ° C.

As to `Oc1ccc2cc3ccccc3cc2c1` [Example 103], the Melting Point was determined as 254 °C. Besides, the “Melting Point” value in series [1] is listed as 254° ° C.

`Nc1nc2c([N+](=O)[O-])cccc2s1` [Example 105] displayed a Melting Point of 254 °C. Besides, the “Melting Point” value in series [1] was 254° ° C.

`CC1(C)CNC(=O)NC1` [Example 107] registered a Melting Point of 255 to 257 °C. Also, the “Melting Point” value in series [1] is given as 255-257° ° C.

The compound `N#Cc1ccc2c(=O)c3ccccc3sc2c1` [Example 110] showed a Melting Point of 255 to 256 °C. Further, the “Melting Point” value in series [1] was 255-256° ° C.

Compound `Oc1ccc(-c2cnc(-c3cccnc3)o2)cc1` [Example 115] showed a Melting Point of 255 to 256 °C. Moreover, the “Melting Point” value in series [1] is 255-256° ° C.

Take `CN1CC2CC(NC(=O)c3n[nH]c4ccccc34)CC(C1)N2C` (stereo not drawn) [Example 118]: the Melting Point was 256 to 257 °C. Further, in series [1], the “Melting Point” value is 256-257° ° C.

As to `c1ccc(-c2ccnc(-c3cc(-c4ccccc4)cc(-c4cc(-c5ccccc5)ccn4)n3)c2)cc1` [Example 122], the Melting Point was 257 to 258 °C. Besides, in series [1], the “Melting Point” value is reported as 257-258° ° C.

`NC1=NCCC(CC(N)C(=O)O)N1` (stereo not drawn) [Example 124] came in with a Melting Point of 258 to 259 °C. Further, the “Melting Point” value in series [1] is recorded as 258-259° ° C.

In turn, `CC(=O)Nc1cnn2c(C)nc3ccccc3c12` [Example 125] displayed a Melting Point of 258 to 260 °C. Moreover, the “Melting Point” value in series [1] is 258-260° ° C.

Compound `O=[N+]([O-])c1nc2ccccc2[nH]1` [Example 127] showed a Melting Point of 258 °C. Further, in series [1], the “Melting Point” value was 258° ° C.

Take `c1cnc2[nH]cnc2n1` [Example 128]: the Melting Point was 258 to 259 °C. For the same compound, in series [1], the “Melting Point” value was 258-259° ° C.

`COc1cc(CCN(C)C)ccc1O` [Example 129] came in with a Melting Point of 258 to 260 °C. In series [1], the “Melting Point” value is listed as 258-260° ° C.

For the compound `Oc1cc2ccccc2c2cc3ccc4ccccc4c3cc12` [Example 130], the Melting Point is 258 to 259 °C. Also, the “Melting Point” value in series [1] is on record as 258-259° ° C.

In the case of `c1ccc2c(c1)[nH]c1ccc3ccncc3c12` [Example 132], the Melting Point lay in the range of 259 to 260 °C. The “Melting Point” value in series [1] is given as 259-260° ° C.

Turning to `CCN(CCCCN)c1ccc2c(=O)[nH][nH]c(=O)c2c1` [Example 136], the Melting Point was in the range of 259 to 260 °C. Further, the “Melting Point” value in series [1] was 259-260° ° C.

Compound `O=c1c(=C2Cc3cccc4cccc2c34)c2cccc3cccc1c32` [Example 137] showed a Melting Point of 259 to 260 °C. Also, the “Melting Point” value in series [1] is given as 259-260° ° C.

Turning to `O=c1cc2oc3ccccc3oc-2cc1=O` [Example 138], the Melting Point lay within 260 to 261 °C. Also, in series [1], the “Melting Point” value was 260-261° ° C.

With `O=c1ccc2c(cc3ccc4cccc5ccc2c3c45)c1=O` [Example 139], the Melting Point stood at 260 °C. In addition, the “Melting Point” value in series [1] is listed as 260° ° C.

`O=C1C=Cc2c(ccc3c2ccc2ccccc23)C1=O` [Example 142]: the Melting Point lay in the range of 260 to 261 °C. Besides, the “Melting Point” value in series [1] is 260-261° ° C.

`O=C1C(=O)c2cc3ccccc3cc2-c2ccccc21` [Example 143] came in with a Melting Point of 260 to 262 °C. The “Melting Point” value in series [1] is 260-262° ° C.

On to `Cn1ccc(N)nc1=O` [Example 145], for which the Melting Point is 260 to 265 °C. In series [1], the “Melting Point” value was 260-265° ° C.

In turn, `NNc1nnc(Cc2ccncc2)c2ccccc12` [Example 149] came in with a Melting Point of 261 to 264 °C. In addition, the “Melting Point” value in series [1] is given as 261-264° ° C.

As for `c1ccc(-c2nc3ncncc3[nH]2)cc1` [Example 150], the Melting Point lay in the range of 261 to 262 °C. In addition, in series [1], the “Melting Point” value is listed as 261-262° ° C.

Compound `O=c1c2ccccc2oc2nc3ccccc3nc12` [Example 155] yielded a Melting Point of 261 °C. In addition, in series [1], the “Melting Point” value is 261° ° C.

With `O=C1c2ccccc2-c2oc(=O)c3ccccc3c21` [Example 156], the Melting Point lay within 261 to 262 °C. For the same compound, in series [1], the “Melting Point” value is 261-262° ° C.

With `Nc1nnc(N)n1N` [Example 158], the Melting Point was 262 to 263 °C. Moreover, in series [1], the “Melting Point” value is 262-263° ° C.

Compound `Cc1[nH]nc2c1N(c1ccccc1)C(=O)CC(=O)N2C` [Example 159] had a Melting Point of 262 °C. In series [1], the “Melting Point” value is on record as 262° ° C.

The compound `O=C1CC(=O)N(c2ccccc2)C(=O)N1` [Example 160] yielded a Melting Point of 262 °C. Further, the “Melting Point” value in series [1] is 262° ° C.

The compound `COc1ncnc2nc[nH]c12` [Example 161] came in with a Melting Point of 262 to 263 °C. For the same compound, the “Melting Point” value in series [1] is listed as 262-263° ° C.

`O=C(O)c1cccc2c1-c1ccc([N+](=O)[O-])cc1C2=O` [Example 163] gave a Melting Point of 262 to 262.5 °C. Besides, the “Melting Point” value in series [1] is listed as 262-262.5° ° C.

Regarding `O=c1c2ccccc2[nH]c2c([N+](=O)[O-])cccc12` [Example 164], the Melting Point was 262 °C. The “Melting Point” value in series [1] is recorded as 262° ° C.

`CC(=O)N[C@@H]1CCC[C@H](NC(C)=O)C1` [Example 166] had a Melting Point of 262 to 264 °C. Besides, the “Melting Point” value in series [1] is on record as 262-264° ° C.

In the case of `NC(=O)C(CC(C(N)=O)C(N)=O)C(N)=O` [Example 168], the Melting Point is 263 to 265 °C. For the same compound, the “Melting Point” value in series [1] is given as 263-265° ° C.

For `Cc1cc(=O)oc2cccc(O)c12` [Example 169], the Melting Point came out at 263 °C. Also, the “Melting Point” value in series [1] is 263° ° C.

As for `O=[N+]([O-])c1c2ccccc2c([N+](=O)[O-])c2ccccc12` [Example 171], the Melting Point worked out at 263 °C. Further, the “Melting Point” value in series [1] was 263° ° C.

For `Oc1cc2cc3c(ccc4ccccc43)cc2c2ccccc12` [Example 173], the Melting Point lay within 263 to 264 °C. Further, the “Melting Point” value in series [1] was 263-264° ° C.

In the case of `COc1c(O)cc2c(c1OC)-c1ccc(OC)c(=O)cc1C(NC=O)CC2` (stereo not drawn) [Example 175], the Melting Point was 263 to 267 °C. Further, the “Melting Point” value in series [1] is recorded as 263-267° ° C.

The compound `CC(=O)N[C@H]1[C@@H](OCc2ccccc2)O[C@@H]2CO[C@H](c3ccccc3)O[C@H]2[C@@H]1O` [Example 176] yielded a Melting Point of 263 to 264 °C. Further, the “Melting Point” value in series [1] is 263-264° ° C.

Regarding `NC(=O)c1c2ccccc2nc2ccccc12` [Example 178], the Melting Point was 263 to 264 °C. Further, the “Melting Point” value in series [1] is given as 263-264° ° C.

Consider `O=[N+]([O-])c1ccc(NN=Cc2ccccn2)cc1` [Example 181], for which the Melting Point is 264 °C. Moreover, the “Melting Point” value in series [1] is 264° ° C.

With `O=C1N=C(NO)c2ccccc21` [Example 182], the Melting Point is 264 to 266 °C. Besides, the “Melting Point” value in series [1] was 264-266° ° C.

The compound `O=c1cc2[nH]c3ccccc3oc-2cc1=O` [Example 185] returned a Melting Point of 264 to 265 °C. In addition, the “Melting Point” value in series [1] was 264-265° ° C.

As for `CCCCCCCCn1cnc2c(=S)nc[nH]c21` [Example 188], the Melting Point is 264 to 266 °C. Further, the “Melting Point” value in series [1] is 264-266° ° C.

In turn, `c1ccc(-c2n[nH]c(-c3ccccc3)c2-c2ccccc2)cc1` [Example 189] yielded a Melting Point of 265 °C. For the same compound, the “Melting Point” value in series [1] is listed as 265° ° C.

As to `CC1(C)CC2(CC(C)(C)NC(=O)N2)NC(=O)N1` [Example 190], the Melting Point lay within 265 to 268 °C. Further, the “Melting Point” value in series [1] was 265-268° ° C.
